Data published in the supplement of paper PMC11781733.

Legend:
Conditions in all cases: exposure time: 15 min to 3 h acute
[1] = tested on: Dugesia japonica; assay: resting fraction in blue light vs vehicle (difference in fraction x100 vs vehicle); higher = higher incidence or increase relative to vehicle control
Method: (§1)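 Adult asexual Dugesia japonica planarians (1 per well, 48-well plate, n=24 over technical triplicates) were exposed acutely (15 min to 3 h) to each compound (0.5% DMSO or water vehicle) and screened on a robotic platform for crawl-out, stickiness, body shape, phototaxis, noxious-heat scrunching and locomotion endpoints. Binary endpoints are incidence rate x100 normalised to in-plate vehicle controls. Continuous endpoints are the median response normalised to the plate vehicle median, as % change or difference. Negative incidences after vehicle subtraction were set to 0.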

[2] = tested on: Dugesia japonica; assay: contracted body shape incidence (% planarians (vehicle-normalised)); higher = higher incidence or increase relative to vehicle control
Method: as §1

[3] = tested on: Dugesia japonica; assay: speed in dark vs vehicle (% change vs vehicle); higher = higher incidence or increase relative to vehicle control
Method: as §1

[4] = tested on: Dugesia japonica; assay: noxious heat displacement strength vs vehicle (% change vs vehicle); higher = higher incidence or increase relative to vehicle control
Method: as §1

[5] = tested on: Dugesia japonica; assay: hyperkinesis incidence (% planarians (vehicle-normalised)); higher = higher incidence or increase relative to vehicle control
Method: as §1

[6] = tested on: Dugesia japonica; assay: corkscrew incidence (% planarians (vehicle-normalised)); higher = higher incidence or increase relative to vehicle control
Method: as §1

[7] = tested on: Dugesia japonica; assay: speed first 30 s blue light vs vehicle (% change vs vehicle); higher = higher incidence or increase relative to vehicle control
Method: as §1

[8] = tested on: Dugesia japonica; assay: resting fraction in dark vs vehicle (difference in fraction x100 vs vehicle); higher = higher incidence or increase relative to vehicle control
Method: as §1

[9] = tested on: Dugesia japonica; assay: anxiety (time in outer well region) vs vehicle (% change vs vehicle); higher = higher incidence or increase relative to vehicle control
Method: as §1

[10] = tested on: Dugesia japonica; assay: speed second 30 s blue light vs vehicle (% change vs vehicle); higher = higher incidence or increase relative to vehicle control
Method: as §1

[11] = tested on: Dugesia japonica; assay: pharynx extrusion incidence (% planarians (vehicle-normalised)); higher = higher incidence or increase relative to vehicle control
Method: as §1

[12] = tested on: Dugesia japonica; assay: stickiness incidence (% planarians (vehicle-normalised)); higher = higher incidence or increase relative to vehicle control
Method: as §1

[13] = tested on: Dugesia japonica; assay: loss of heat-induced scrunching incidence (% planarians (vehicle-normalised)); higher = higher incidence or increase relative to vehicle control
Method: as §1

[14] = tested on: Dugesia japonica; assay: C-shape incidence (% planarians (vehicle-normalised)); higher = higher incidence or increase relative to vehicle control
Method: as §1

[15] = tested on: Dugesia japonica; assay: loss of phototaxis incidence (% planarians (vehicle-normalised)); higher = higher incidence or increase relative to vehicle control
Method: as §1

[16] = tested on: Dugesia japonica; assay: crawl-out incidence (% planarians); higher = higher incidence or increase relative to vehicle control
Method: as §1, with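 “x100.” for “x100 normalised to in-plate vehicle controls.”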

[17] = tested on: Dugesia japonica; assay: total locomotor bursts minus vehicle (bursts difference vs vehicle); higher = higher incidence or increase relative to vehicle control
Method: as §1

[18] = tested on: Dugesia japonica; assay: any abnormal body shape incidence (% planarians (vehicle-normalised)); higher = higher incidence or increase relative to vehicle control
Method: as §1

| Compound | resting fraction in blue light [1] | contracted body shape incidence [2] | speed in dark [3] | noxious heat displacement strength [4] | hyperkinesis incidence [5] | corkscrew incidence [6] | speed first 30 s blue light [7] | resting fraction in dark [8] | anxiety [9] | speed second 30 s blue light [10] | pharynx extrusion incidence [11] | stickiness incidence [12] | loss of heat-induced scrunching incidence [13] | C-shape incidence [14] | loss of phototaxis incidence [15] | crawl-out incidence [16] | total locomotor bursts minus vehicle [17] | any abnormal body shape incidence [18] |
| --- | --- | --- | --- | --- | --- | --- | --- | --- | --- | --- | --- | --- | --- | --- | --- | --- | --- | --- |
| CN1C(=O)CN=C(c2ccccc2)c2cc(Cl)ccc21 [diazepam] (10 µM) | 0.83 | 0 | 15.9 | -17.4 | 0 | 0 | 0.43 | -5.91 | 0.94 | -16.1 | 0 | 21.7 | 12.5 | 0 | 50 | 0 | -1 | 0 |
| CN1C(=O)CN=C(c2ccccc2)c2cc(Cl)ccc21 [diazepam] (31.6 µM) | 17.2 | 8.33 | -43.7 | -21.6 | 8.33 | 4.17 | -43.1 | 56.8 | -8.02 | -63 | 25 | 16.7 | 16.7 | 25 | 8.33 | 0 | 6.5 | 41.7 |
| CN1C(=O)CN=C(c2ccccc2)c2cc(Cl)ccc21 [diazepam] (100 µM) | 50.2 | 12.5 | -72.2 | -45.6 | 16.7 | 20.8 | -84.2 | 48.6 | -36.9 | -87.6 | 37.5 | ≤ 0 | 37.5 | 62.5 | 29.2 | 0 | 55 | 100 |
| O=C(CCCN1CC=C(n2c(=O)[nH]c3ccccc32)CC1)c1ccc(F)cc1 [droperidol] (3.16 µM) | 66.1 | 16.7 | -77.5 | -42.7 | 37.5 | 8.33 | -90.1 | 62.6 | -4.16 | -89.6 | 0 | 8.33 | 66.7 | 12.5 | 45.8 | 0 | 18.8 | 50 |
| O=C(CCCN1CC=C(n2c(=O)[nH]c3ccccc32)CC1)c1ccc(F)cc1 [droperidol] (10 µM) | 67.9 | 29.2 | -80 | -23.3 | 25 | 12.5 | -93.8 | 68.7 | -31.9 | -91.1 | 0 | ≤ 0 | 70.8 | 20.8 | 54.2 | 0 | 19.5 | 70.8 |
| O=C(CCCN1CC=C(n2c(=O)[nH]c3ccccc32)CC1)c1ccc(F)cc1 [droperidol] (31.6 µM) | 85.4 | 70.8 | -81.9 | -34 | 25 | 4.17 | -94.6 | 86.7 | -26.3 | -94.3 | 0 | 12.5 | 75 | 29.2 | 58.3 | 0 | 12.2 | 95.8 |
| O=C(CCCN1CC=C(n2c(=O)[nH]c3ccccc32)CC1)c1ccc(F)cc1 [droperidol] (100 µM) | 93.1 | 100 | -79.8 | -26.6 | 0 | 0 | -94.2 | 74.8 | -37 | -96.2 | 0 | 13 | 73.9 | 4.35 | 60.9 | 4.17 | 30 | 100 |
| CN(C)CCC[C@@]1(c2ccc(F)cc2)OCc2cc(C#N)ccc21 [escitalopram] (31.6 µM) | 0 | 4.17 | -4.33 | -31.5 | 0 | 0 | 12.5 | -4.32 | 3.28 | 4.85 | 0 | 8.33 | 37.5 | 0 | 4.17 | 0 | -1.25 | 0 |
| CN(C)CCC[C@@]1(c2ccc(F)cc2)OCc2cc(C#N)ccc21 [escitalopram] (100 µM) | -0.46 | 0 | -3.87 | -34 | 0 | 0 | -13.7 | -4.57 | 1.47 | -2.15 | 0 | ≤ 0 | 25 | 0 | 16.7 | 0 | 1.75 | 0 |
| CN(C)CCC[C@@]1(c2ccc(F)cc2)OCc2cc(C#N)ccc21 [escitalopram] (316 µM) | -0.69 | 0 | -24.6 | -39.8 | 50 | 0 | -31.5 | -1.78 | 1.26 | -35.5 | 0 | ≤ 0 | 25 | 0 | ≤ 0 | 0 | 16 | 50 |
| CN(C)CCC[C@@]1(c2ccc(F)cc2)OCc2cc(C#N)ccc21 [escitalopram] (1000 µM) | 18.9 | 4.35 | -42.1 | -59 | 56.5 | 26.1 | -68.2 | 17.6 | 19.7 | -66.8 | 0 | 30.4 | 60.9 | 0 | 8.7 | 4.17 | 37.8 | 69.6 |
| CN1CC(=O)N=C1NC(=O)Nc1cccc(Cl)c1 [fenobam] (100 µM) | 0.38 | 0 | -18.5 | -43 | 0 | 0 | -26.8 | 0 | -2.96 | -27 | 0 | ≤ 0 | 8.33 | 0 | ≤ 0 | 0 | 2 | 0 |
| CN1CC(=O)N=C1NC(=O)Nc1cccc(Cl)c1 [fenobam] (178 µM) | 0 | 0 | -3.57 | -42.2 | 0 | 0 | -12.6 | 0.09 | 3.95 | -18.9 | 0 | ≤ 0 | ≤ 0 | 0 | ≤ 0 | 0 | 0.5 | 0 |
| CN1CC(=O)N=C1NC(=O)Nc1cccc(Cl)c1 [fenobam] (316 µM) | 0.18 | 0 | -12.6 | -32.2 | 0 | 0 | -14.2 | 0 | -0.1 | -16.9 | 0 | ≤ 0 | ≤ 0 | 0 | ≤ 0 | 0 | 0 | 0 |
| CN1CC(=O)N=C1NC(=O)Nc1cccc(Cl)c1 [fenobam] (562 µM) | 1.05 | 0 | -21.3 | -39.8 | 0 | 0 | -24.4 | 0.55 | -14.4 | -18.3 | 0 | ≤ 0 | ≤ 0 | 0 | ≤ 0 | 0 | 2.75 | 0 |
